Each structure is given as a SMILES string.

Sequence of recombinant Human Phosphodiesterase B2 (PDE4B2) (Q07343 1-564 isoform Q07343-2): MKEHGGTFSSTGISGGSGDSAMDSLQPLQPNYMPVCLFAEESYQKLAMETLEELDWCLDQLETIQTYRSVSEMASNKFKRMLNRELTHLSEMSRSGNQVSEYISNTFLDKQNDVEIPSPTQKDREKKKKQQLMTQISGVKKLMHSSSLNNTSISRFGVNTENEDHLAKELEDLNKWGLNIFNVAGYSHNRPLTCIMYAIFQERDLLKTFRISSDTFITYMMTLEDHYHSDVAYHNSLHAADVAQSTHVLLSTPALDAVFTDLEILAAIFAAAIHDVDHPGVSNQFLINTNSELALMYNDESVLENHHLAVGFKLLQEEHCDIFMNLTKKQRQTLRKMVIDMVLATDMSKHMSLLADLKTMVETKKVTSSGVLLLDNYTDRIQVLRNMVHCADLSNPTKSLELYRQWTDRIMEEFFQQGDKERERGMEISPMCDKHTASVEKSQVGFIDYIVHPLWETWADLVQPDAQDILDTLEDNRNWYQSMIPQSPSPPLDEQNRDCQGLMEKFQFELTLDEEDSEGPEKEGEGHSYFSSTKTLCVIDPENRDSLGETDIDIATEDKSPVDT

This test concerns the target recombinant Human Phosphodiesterase B2 (PDE4B2) (Homo sapiens, UniProt Q07343). The test can be described thus: Human Phosphodiesterase B2 Radiometric Assay. In kind it is biochemical. Particulars: 0.1 μg/mL recombinant PDE4B2; preincubated at 30 C for 30 min; [3H]cyclic AMP 8 nM, stopped after 20 min; yttrium silicate SPA beads; read-out: PDE4B2 pIC50 (converted). In a few lines: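 Compounds preincubated 30 min at 30 C with 0.1 μg/mL recombinant PDE4B2 in 50 mM HEPES pH 7.5, 8.3 mM MgCl2, 1.7 mM EGTA, 0.01% Brij 35.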
On to `Cc1csc(C(=O)N[C@H]2CC[C@@H](NC(=O)c3cc(F)cnc3Oc3cccc(-c4ccc(CN5C[C@@H](C)N[C@@H](C)C5)cc4CN4CCOC[C@@H]4C)c3)CC2)n1` [Example 194, N-((1s,4s)-4-(2-(4′-(((3S,5R)-3,5-dimethylpiperazin-1-yl)methyl)-2′-(((S)-3-methylmorpholino)methyl)biphenyl-3-yloxy)-5-fluoronicotinamido)cyclohexyl)-4-methylthiazole-2-carboxamide], for which the IC50 is 0.0316 nM.
In the case of `Cc1cccc2nc(C(=O)N[C@H]3CC[C@@H](NC(=O)c4cc(F)cnc4Oc4cccc(-c5ccc(O)cc5CN5CCCOCC5)c4)CC3)cn12` [Example 20, N-((1s,4s)-4-(2-(2′-((1,4-oxazepan-4-yl)methyl)-4′-hydroxybiphenyl-3-yloxy)-5-fluoronicotinamido)cyclohexyl)-5-methylimidazo[1,2-a]pyridine-2-carboxamide], the IC50 was 0.0316 nM.
Take `Cc1cccc2nc(C(=O)N[C@H]3CC[C@@H](NC(=O)c4cc(F)cnc4Oc4cccc(-c5ccc(CN6C[C@@H](C)N[C@@H](C)C6)cc5CN5CCOCC5)c4)CC3)cn12` [Example 123, N-((1s,4s)-4-(2-(4′-(((3S,5R)-3,5-dimethylpiperazin-1-yl)methyl)-2′-(morpholinomethyl)biphenyl-3-yloxy)-5-fluoronicotinamido)cyclohexyl)-5-methylimidazo[1,2-a]pyridine-2-carboxamide]: the IC50 was 0.0631 nM.
Turning to `Cc1nc(C(=O)N[C@H]2CC[C@@H](NC(=O)c3cc(F)cnc3Oc3cccc(-c4ccc(O)cc4CN4CCCOCC4)c3)CC2)cs1` [Example 15, N-((1s,4s)-4-(2-(2′-((1,4-oxazepan-4-yl)methyl)-4′-hydroxybiphenyl-3-yloxy)-5-fluoronicotinamido)cyclohexyl)-2-methylthiazole-4-carboxamide], the IC50 is 0.02 nM.
On to `Cc1cccc(C(=O)N[C@H]2CC[C@@H](NC(=O)c3cc(F)cnc3Oc3cccc(-c4ccc(O)c(CN5C[C@@H](C)N[C@@H](C)C5)c4)c3)CC2)n1` [Example 89, N-((1s,4s)-4-(2-(3′-(((3S,5R)-3,5-dimethylpiperazin-1-yl)methyl)-4′-hydroxybiphenyl-3-yloxy)-5-fluoronicotinamido)cyclohexyl)-6-methylpicolinamide], for which the IC50 was 0.0794 nM.
In the case of `O=C(N[C@H]1CC[C@@H](NC(=O)c2cc(F)cnc2Oc2cccc(-c3ccc(O)cc3CN3CCOCC3)c2)CC1)c1ccc(O)cc1` [Example 31, 5-fluoro-2-(4′-hydroxy-2′-(morpholinomethyl)biphenyl-3-yloxy)-N-((1s,4s)-4-(4-hydroxybenzamido)cyclohexyl)nicotinamide] it was 0.501 nM.
As to `Cc1cc(C(=O)N[C@H]2CC[C@@H](NC(=O)c3cc(F)cnc3Oc3cccc(-c4ccc(CN5CCSCC5)cc4CN4CCOCC4)c3)CC2)nn1C` [Example 138, N-((1s,4s)-4-(1,5-dimethyl-1H-pyrazole-3-carboxamido)cyclohexyl)-5-fluoro-2-(2′-(morpholinomethyl)-4′-(thiomorpholinomethyl)biphenyl-3-yloxy)nicotinamide], the IC50 is 0.0251 nM.
In the case of `C[C@@H]1CN(CCCc2cccc(-c3cccc(Oc4ncc(F)cc4C(=O)N[C@H]4CC[C@@H](NC(=O)c5cc6n(n5)CCC6)CC4)c3)c2)C[C@H](C)N1` [Example 172, N-((1s,4s)-4-(2-(3′-(3-((3S,5R)-3,5-Dimethylpiperazin-1-yl)propyl)biphenyl-3-yloxy)-5-fluoronicotinamido)cyclohexyl)-5,6-dihydro-4H-pyrrolo[1,2-b]pyrazole-2-carboxamide], the IC50 was 0.0631 nM.
For the compound `Cc1cc(C(=O)N[C@H]2CC[C@@H](NC(=O)c3cc(F)cnc3Oc3cccc(-c4cccc(CCCN5CCNCC5)c4)c3)CC2)nn1C` [Example 108, N-((1s,4s)-4-(1,5-dimethyl-1H-pyrazole-3-carboxamido)cyclohexyl)-5-fluoro-2-(3′-(3-(piperazin-1-yl)propyl)biphenyl-3-yloxy)nicotinamide], the IC50 is 0.02 nM.
In the case of `C[C@@H]1CN(CCc2ccc(-c3cccc(Oc4ncc(F)cc4C(=O)N[C@H]4CC[C@@H](NC(=O)c5cc6n(n5)CCCC6)CC4)c3)cc2)C[C@H](C)N1` [Example 162, N-((1s,4s)-4-(2-(4′-(2-((3S,5R)-3,5-Dimethylpiperazin-1-yl)ethyl)biphenyl-3-yloxy)-5-fluoronicotinamido)cyclohexyl)-4,5,6,7-tetrahydropyrazolo[1,5-a]pyridine-2-carboxamide] it was 0.0398 nM; in that of `C[C@@H]1CN(Cc2ccc(-c3cccc(Oc4ncc(F)cc4C(=O)N[C@H]4CC[C@@H](NC(=O)c5cc6ccccn6n5)CC4)c3)cc2)C[C@H](C)N1` [Example 71, N-((1s,4s)-4-(2-(4′-(((3S,5R)-3,5-dimethylpiperazin-1-yl)methyl)biphenyl-3-yloxy)-5-fluoronicotinamido)cyclohexyl)pyrazolo[1,5-a]pyridine-2-carboxamide], 0.0251 nM; in that of `C[C@@H]1CN(Cc2ccc(-c3cccc(Oc4ncc(F)cc4C(=O)N[C@H]4CC[C@@H](NC(=O)c5cccc6[nH]cnc56)CC4)c3)c(CN3CCSCC3)c2)C[C@H](C)N1` [Example 202, N-((1s,4s)-4-(2-(4′-(((3S,5R)-3,5-dimethylpiperazin-1-yl)methyl)-2′-(thiomorpholinomethyl)biphenyl-3-yloxy)-5-fluoronicotinamido)cyclohexyl)-1H-benzo[d]imidazole-4-carboxamide], 0.0126 nM.
On to `COCc1nc(C(=O)N[C@H]2CC[C@@H](NC(=O)c3cc(F)cnc3Oc3cccc(-c4ccc(O)cc4CN4CCOCC4)c3)CC2)cs1` [Example 63, N-((1s,4s)-4-(5-fluoro-2-(4′-hydroxy-2′-(morpholinomethyl)biphenyl-3-yloxy)nicotinamido)cyclohexyl)-2-(methoxymethyl)thiazole-4-carboxamide], for which the IC50 is 0.126 nM.
In the case of `C[C@@H]1CN(Cc2ccc(-c3cccc(Oc4ncc(F)cc4C(=O)N[C@H]4CC[C@@H](NC(=O)c5cc6ccccn6n5)CC4)c3)cc2O)C[C@H](C)N1` [Example 97, N-((1s,4s)-4-(2-(4′-(((3S,5R)-3,5-dimethylpiperazin-1-yl)methyl)-3′-hydroxybiphenyl-3-yloxy)-5-fluoronicotinamido)cyclohexyl)pyrazolo[1,5-a]pyridine-2-carboxamide] it was 0.126 nM; in that of `O=C(N[C@H]1CC[C@@H](NC(=O)c2cc(F)cnc2Oc2cccc(-c3ccc(CCCN4CCNCC4)cc3)c2)CC1)c1cc2n(n1)CCC2` [Example 133, N-((1s,4s)-4-(5-fluoro-2-(4′-(3-(piperazin-1-yl)propyl)biphenyl-3-yloxy)nicotinamido)cyclohexyl)-5,6-dihydro-4H-pyrrolo[1,2-b]pyrazole-2-carboxamide], 0.0501 nM; in that of `Cc1csc(C(=O)N[C@H]2CC[C@@H](NC(=O)c3cc(F)cnc3Oc3cccc(-c4ccc(CCN5CCNCC5)cc4)c3)CC2)n1` [Example 184, N-((1s,4s)-4-(5-Fluoro-2-(4′-(2-(piperazin-1-yl)ethyl)biphenyl-3-yloxy)nicotinamido)cyclohexyl)-4-methylthiazole-2-carboxamide], 0.0398 nM.

(Values after patent US8273774B2, “Phenoxypyridinylamide compounds” (AstraZeneca AB, priority 2008, dated 2012).)
